Assay results taken from US20240173353A1, “UNIVERSAL CHIMERIC ANTIGEN RECEPTOR T-CELL AND APPLICATION THEREOF” (SHANGHAI IASO BIOTECHNOLOGY CO., LTD., priority 2021, published 2024).
Read-outs that look alike come from different tables or passages of the source.

Legend:
[1] = tested on: normal human T lymphocytes; conditions: in vitro; cited from earlier work
[2] = tested on: CD19/BCMA bispecific CAR-T cells; test: CD107a translocation of CD19/BCMA bispecific CAR-T cells; format: cell-based, human; conditions: CAR-T cells with LCK-T316I mutation, 100 nM dasatinib 12 hr, U266B1 and Raji
Description: The inventors edited the prepared CD19/BCMA dual-target CAR-T by electroporation with the CBE3 protein, the RNP complexes (18 nt and 21 nt) of CBE3 and LCK-sgRNA12, and the RNP complexes (18 nt and 21 nt) of CBE3 and LCK-sgRNA16 respectively, to achieve three different groups of editing treatments. […] These target cells include U266B1 (BCMA positive), Raji (CD19 positive), K562 (negative control), allogeneic T cells (negative control) and blank Buffer control (negative control).

[3] = cited from earlier work
[4] = tested on: T cells; test: T cell activation by anti-CD3/CD28 DynaBeads, CD25/CD69/4-1BB expression by flow cytometry
Description: The inventors pre-treated T cells with dasatinib or DMSO for 5 hr, then activated T cells with anti-CD3/CD28 DynaBeads for 24 hr, and then detected the expression of activation molecules CD25, CD69 and 4-1BB by flow cytometry.
In order to verify the tolerance of the LCK-T316I mutation to the function of dasatinib, the inventors carried out experimental verification on the T cells with LCK edited with different sgRNA lengths prepared in Example 2.
The inventors isolated CD3-positive T cells from human peripheral blood and divided them into eleven portions for processing, with 1e5 cells in each portion. One of these portions was not treated with dasatinib, anti-CD3/CD28 DynaBeads were not added to activate TCR, and this portion was as the initial control group; the other 10 portions of cells were pretreated with different concentrations of dasatinib for 4 hr, ten concentrations ranging from 0 nM to 50 nM were set, and then anti-CD3/CD28 DynaBeads were added to activate TCR signals overnight. On the second day, the expression of CD25, CD69 and 4-1BB activation signals was detected, and the activation of TCR signals was detected. Two replicates were set for each group of experiments.
The inventors divided each of the three groups of edited cells into 6 sub-groups and cultured them in a flat-bottomed 96-well plate. Each sub-group contained two technical replicates, and each well contained 0.15×10^6 cells. […] Subsequently, the cells were cultured for 18 hr. The activated T cell surface marker molecule 4-1BB was detected by using the APC-labeled murine IgG monoclonal antibody, and the activated T cell surface marker molecule CD25 was detected by using the PE-labeled murine IgG monoclonal antibody, and the activated T cell surface marker CD69 was detected by FITC-labeled murine IgG monoclonal antibody.
The inventors conducted research using two groups of T cells (CBE3 control group and Km edited group) in the above experiments. The experimental procedure is basically the same as the above-mentioned experiment (FIG. 32B). The two groups of edited cells were each divided into 7 sub-groups and cultured them in a flat-bottomed 96-well plate. Each sub-group contained two technical replicates, and each well contained 0.15×10^6 cells. […] Subsequently, the cells were cultured for 18 hr. The activated T cell surface marker molecule 4-1BB was detected by using the APC-labeled murine IgG monoclonal antibody, and the activated T cell surface marker molecule CD25 was detected by using the PE-labeled murine IgG monoclonal antibody, and the activated T cell surface marker CD69 was detected by FITC-labeled murine IgG monoclonal antibody.

[5] = tested on: anti-BCMA-CAR-T cells; test: CD107a translocation of anti-BCMA-CAR-T cells co-incubated with target cells; format: cell-based, human; conditions: LCK-sgRNA16 editing group (42% T316I), 100 nM dasatinib 12 hr
[6] = tested on: anti-CD19-CAR-T cells; test: CD107a translocation of anti-CD19-CAR-T cells co-incubated with target cells; format: cell-based, human; conditions: LCK-sgRNA16 editing group (43% T316I), 100 nM dasatinib 12 hr, Nalm6 target cells
Description: First, the inventors edited the prepared anti-CD19 CAR-T by electroporation with the CBE3 protein, the RNP complex of CBE3 and LCK-sgRNA12, and the RNP complex of CBE3 and LCK-sgRNA16 respectively, to achieve three different editing treatments.

[7] = tested on: CD5-UCAR-T cells; conditions: reduced to 0 nM, Jurkat 4 hr
Method: Subsequently, they were treated overnight with dasatinib at a concentration of 50 nM or 25 nM, respectively. […] After 4 hr of co-incubation, CD107a release in CD8 and CAR double-positive cells was detected.
After 4 hr of co-incubation, CD107a release from CD8/CAR double-positive cells was detected.

[8] = tested on: anti-BCMA CAR-T cells; test: Luciferase killing assay of anti-BCMA CAR-T on luciferase-positive target cells; conditions: CBE3 and CBE3+sg12 groups, 100 nM dasatinib 12 hr, effector-to-target 1:1, 24 hr
[9] = tested on: T cells; test: UCAR-T preparation process with dasatinib added after editing; format: cell-based, human; conditions: experimental group, 100 nM DS added after editing
Method: The inventors isolated CD3-positive T cells from PBMCs from three different donors using PanT kits, knocked out the B2M and TRAC genes, and performed LCK-T316I editing on the cells. Then the cells were divided into two portions, to one portion, 100 nM DS was added (experimental group), and to the other portion, a corresponding amount of DMSO was added as a control (control group). After 2 hr, to the experimental group and the control group, T cell activators (CD2/CD3/CD28, 25 ul/1M/mL) were added. After 48 hr of activation, the cells were infected with the anti-CD19 CAR molecule through lentivirus infection, and the medium was replaced 24 hr after the virus infection, and DS or DMSO was removed at the same time.

[10] = T cells, 20 nM dasatinib 4 hr, beads overnight
[11] = T cells, 25 nM dasatinib 4 hr, beads overnight
[12] = T cells, dasatinib increased to 50 nM, beads overnight

Compound: Cc1nc(Nc2ncc(C(=O)Nc3c(C)cccc3Cl)s2)cc(N2CCN(CCO)CC2)n1 [dasatinib]
- viability of T cells [1]: will not affect the viability of T cells
- CD107a positive rate [2]: above 50%
- half-life in vivo [3]: 3 to 4 h
- concentration that effectively inhibits T cell activation in vitro (minimum) ([4]; T cells, 0-50 nM gradient): 25 nM
- percentage of CD25 and 4-1BB double-positive cells [4, 10]: 2.09%
- percentage of CD25 and CD69 double-positive cells [4, 10]: 8.75%
- percentage of CD25 and CD69 double-positive cells [4, 11]: 1.06%
- percentage of double-positive cells (FIG. 20B, CD25 and 4-1BB as indicators) [4, 11]: 0.26%
- concentration sufficient to inhibit activation of TCR signaling ([4]; T cells, 5 hr pretreatment, beads 24 hr): 100 nM
- percentage of CD25 and CD69 double-positive cells [4, 12]: below 1%
- percentage of double-positive cells (FIG. 20B, CD25 and 4-1BB as indicators) [4, 12]: below 1%
- reduction of expression of activation molecules versus no dasatinib ([4]; sgRNA16 group (about 50% edited), 100 nM dasatinib, anti-CD3/CD28 beads): 20%-50%
- positive CD107a translocation in CD8 and CAR double-positive cells ([5]; RPMI-8226): 44.7%
- positive CD107a translocation in CD8 and CAR double-positive cells ([5]; U266B1): 39.6%
- positive CD107a translocation in CD8 and CAR double-positive cells [6]: 50%
- positive CD107a release ([7]; CD5-CART, repeat, 50 nM pretreatment): 12.1%
- positive CD107a release ([7]; sg12 control CD5-UCART, 50 nM pretreatment overnight): 12%
- positive CD107a release ([7]; sg16 (LCK-T316I) CD5-UCART, 50 nM pretreatment): 16%
- cytotoxicity of anti-BCMA CAR-T (luciferase value of RPMI-8226) [8]: significantly inhibited
- percentage of B2M and TRAC double knockout [9]: more than 50%
